Source: ChEMBL document CHEMBL1137908, “Synthesis and antibacterial activity of novel 6-fluoro-1-[(1R,2S)-2-fluorocyclopropan-1-yl]-4-oxoquinoline-3-carboxylic acids bearing cyclopropane-fused 2-amino-8-azabicyclo[4.3.0]nonan-8-yl substituents at the C-7 position” (Bioorg Med Chem Lett, 2004)
In brackets after ≈: the same amount, converted by molar mass.

What was measured:
[1] = Ratio of binding to human DNA topoisomerase II and Staphylococcus aureus DNA topoisomerase IV
[2] = test system: Staphylococcus epidermidis; test: Antibacterial activity against Staphylococcus epidermidis 56500 was determined; type: functional
[3] = test system: Streptococcus mitis; test: Antibacterial activity against Streptococcus mitis IID685 was determined; type: functional
[4] = test system: Streptococcus pyogenes; test: Antibacterial activity against Streptococcus pyogenes G-36 was determined; type: functional
[5] = test system: Streptococcus pneumoniae; test: Antibacterial activity against Penicillin-resistant Streptococcus pneumoniae (PRSP) J-24 was determined; type: functional
[6] = test system: Staphylococcus aureus; test: Antibacterial activity against methicillin-resistant Staphylococcus aureus (MRSA) 870307 was determined; type: functional
[7] = biological target: DNA topoisomerase II (Homo sapiens, UniProt P11388+Q02880); test: Inhibitory concentration against human DNA topoisomerase II; type: protein assay
[8] = biological target: T1, DNA topoisomerase 4 subunit A (Staphylococcus aureus subsp. aureus Mu50, UniProt Q931S2); test: Inhibitory concentration against Staphylococcus aureus DNA topoisomerase IV
T1 sequence (Q931S2 whole entry): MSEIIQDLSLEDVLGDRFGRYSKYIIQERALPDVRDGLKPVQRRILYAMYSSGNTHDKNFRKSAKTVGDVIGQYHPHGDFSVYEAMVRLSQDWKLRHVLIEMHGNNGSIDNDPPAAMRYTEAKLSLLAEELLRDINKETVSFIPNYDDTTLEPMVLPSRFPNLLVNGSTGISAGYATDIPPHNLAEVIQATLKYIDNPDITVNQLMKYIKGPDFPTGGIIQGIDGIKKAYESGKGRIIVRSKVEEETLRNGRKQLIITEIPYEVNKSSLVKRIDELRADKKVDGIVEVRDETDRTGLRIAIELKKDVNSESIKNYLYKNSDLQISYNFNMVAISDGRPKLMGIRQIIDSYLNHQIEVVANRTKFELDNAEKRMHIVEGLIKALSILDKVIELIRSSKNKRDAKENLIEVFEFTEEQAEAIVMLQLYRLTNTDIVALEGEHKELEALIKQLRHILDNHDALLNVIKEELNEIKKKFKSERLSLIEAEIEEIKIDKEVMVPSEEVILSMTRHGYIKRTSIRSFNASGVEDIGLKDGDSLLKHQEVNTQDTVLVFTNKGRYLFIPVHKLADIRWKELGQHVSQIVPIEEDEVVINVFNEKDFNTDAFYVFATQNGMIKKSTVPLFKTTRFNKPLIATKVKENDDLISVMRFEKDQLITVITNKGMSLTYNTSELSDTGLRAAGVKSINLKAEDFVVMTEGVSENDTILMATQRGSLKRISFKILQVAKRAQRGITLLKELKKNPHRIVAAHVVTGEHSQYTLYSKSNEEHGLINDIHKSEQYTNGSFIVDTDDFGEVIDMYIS

[9] = test system: Staphylococcus aureus; test: Antibacterial activity against Staphylococcus aureus FDA 209P was determined; type: functional
[10] = test system: Enterococcus faecalis; test: Antibacterial activity against Enterococcus faecalis ATCC 19433 was determined; type: functional
[11] = test system: Klebsiella pneumoniae; test: Antibacterial activity against Klebsiella pneumoniae type II was determined; type: functional
[12] = test system: Escherichia coli; test: Antibacterial activity against Escherichia coli NIHJ was determined; type: functional
[13] = Staphylococcus aureus, read-out: MIC
[14] = Staphylococcus epidermidis, read-out: MIC
[15] = Enterococcus faecalis, ATCC 19433, read-out: MIC
[16] = Streptococcus mitis, read-out: MIC
[17] = Streptococcus pyogenes, read-out: MIC
[18] = Klebsiella pneumoniae, read-out: MIC
[19] = Streptococcus pneumoniae, read-out: MIC
[20] = Escherichia coli, read-out: MIC

SMILES	MIC [2]	MIC [3]	MIC [4]	MIC [5]	MIC [6] [µg/mL]	MIC [9, 13] [µg/mL]	MIC [2, 14] [µg/mL]	MIC [10, 15] [µg/mL]	MIC [3, 16] [µg/mL]	MIC [4, 17] [µg/mL]	MIC [11, 18] [µg/mL]	MIC [5, 19] [µg/mL]	MIC [6, 13] [µg/mL]	MIC [12, 20] [µg/mL]	further results
Nc1c(F)c(N2C[C@H]3C[C@@H]4C[C@@H]4[C@H](N)[C@H]3C2)c(F)c2c1c(=O)c(C(=O)O)cn2[C@@H]1C[C@@H]1F (stereo in doubt; 26 (+))															Selectivity [1]: 17.3
Nc1c(F)c(N2C[C@H]3C[C@@H]4C[C@@H]4[C@H](N)[C@H]3C2)c(F)c2c1c(=O)c(C(=O)O)cn2[C@@H]1C[C@@H]1F (stereo in doubt; 27 (-))	0.006 µg/mL (≈ 0.0134 µM)	0.006 µg/mL (≈ 0.0134 µM)	0.01 µg/mL (≈ 0.0223 µM)	0.006 µg/mL (≈ 0.0134 µM)	0.2 (≈ 0.446 µM)										
Nc1c(F)c(N2C[C@H]3CCC[C@@H](N)[C@H]3C2)c(F)c2c1c(=O)c(C(=O)O)cn2[C@@H]1C[C@@H]1F (stereo in doubt; 28 (+)) [listing 1 of 2 here]	<=0.003 ug ml-1	<=0.003 ug ml-1	<=0.003 ug ml-1	<=0.003 ug ml-1	0.006 (≈ 0.0137 µM)										IC50 [7]: 7 µg/mL (≈ 16 µM); IC50 [8]: 412 nM; MIC [9]: <=0.003 ug ml-1; MIC [10]: 0.02 µg/mL (≈ 0.0458 µM); MIC [11]: 0.01 µg/mL (≈ 0.0229 µM); MIC [12]: <=0.003 ug ml-1
Nc1c(F)c(N2C[C@H]3CCC[C@@H](N)[C@H]3C2)c(F)c2c1c(=O)c(C(=O)O)cn2[C@@H]1C[C@@H]1F (stereo in doubt; 28 (+)) [listing 2 of 2 here]															Selectivity [1]: 38.3
Nc1c(F)c(N2C[C@H]3CCC[C@@H](N)[C@H]3C2)c(F)c2c1c(=O)c(C(=O)O)cn2[C@@H]1C[C@@H]1F (stereo in doubt; 29 (-))	0.2 µg/mL (≈ 0.458 µM)	0.1 µg/mL (≈ 0.229 µM)	0.1 µg/mL (≈ 0.229 µM)	0.1 µg/mL (≈ 0.229 µM)	0.78 (≈ 1.79 µM)										MIC [9]: 0.02 µg/mL (≈ 0.0458 µM); MIC [10]: 0.78 µg/mL (≈ 1.79 µM); MIC [11]: 0.39 µg/mL (≈ 0.894 µM); MIC [12]: 0.1 µg/mL (≈ 0.229 µM)
C[C@H]1COc2c(N3CCN(C)CC3)c(F)cc3c(=O)c(C(=O)O)cn1c23.C[C@H]1COc2c(N3CCN(C)CC3)c(F)cc3c(=O)c(C(=O)O)cn1c23.O [LEVOFLOXACIN]						0.2	0.39	0.78	0.39	0.78	0.05	0.78	> 6.25		
CC(=O)NC[C@H]1CN(c2ccc(N3CCOCC3)c(F)c2)C(=O)O1 [LINEZOLID]						0.78 (≈ 2.31 µM)	1.56 (≈ 4.62 µM)	3.13 (≈ 9.28 µM)	1.56 (≈ 4.62 µM)	3.13 (≈ 9.28 µM)	> 6.25	0.78 (≈ 2.31 µM)	1.56 (≈ 4.62 µM)	6.25 (≈ 18.5 µM)	
COc1c(N2C[C@@H]3CCCN[C@@H]3C2)c(F)cc2c(=O)c(C(=O)O)cn(C3CC3)c12 [MOXIFLOXACIN]						0.02 (≈ 0.0498 µM)	0.1 (≈ 0.249 µM)	0.2 (≈ 0.498 µM)	0.1 (≈ 0.249 µM)	0.2 (≈ 0.498 µM)	0.05 (≈ 0.125 µM)	0.02 (≈ 0.0498 µM)	0.78 (≈ 1.94 µM)	0.006 (≈ 0.0149 µM)	
CN[C@H](CC(C)C)C(=O)N[C@H]1C(=O)N[C@@H](CC(N)=O)C(=O)N[C@H]2C(=O)N[C@H]3C(=O)N[C@H](C(=O)N[C@H](C(=O)O)c4cc(O)cc(O)c4-c4cc3ccc4O)[C@H](O)c3ccc(c(Cl)c3)Oc3cc2cc(c3O[C@@H]2O[C@H](CO)[C@@H](O)[C@H](O)[C@H]2O[C@H]2C[C@](C)(N)[C@H](O)[C@H](C)O2)Oc2ccc(cc2Cl)[C@H]1O [VANCOMYCIN]						0.2 (≈ 0.138 µM)		0.39 (≈ 0.269 µM)	0.39 (≈ 0.269 µM)	0.39 (≈ 0.269 µM)	> 6.25	0.2 (≈ 0.138 µM)	0.39 (≈ 0.269 µM)	> 6.25	
